In patent US8946439B2, “Amide compounds, compositions and uses thereof” (Evotec AG, priority 2008, dated 2015):
Read-outs that look alike come from different tables or passages of the source.

Key:
hP2X2/3H = biological target: T1, hP2X2/3H (Homo sapiens, UniProt P56373+Q9UBL9); assay: Calcium uptake assay (P2X antagonist assay), P2X2/3 heteromer; format: cell-based
T1 construct: expressed in transfected cells; host or cells: e.g. HEK293 or 1321N1
T1 sequence (Q9UBL9 1-471): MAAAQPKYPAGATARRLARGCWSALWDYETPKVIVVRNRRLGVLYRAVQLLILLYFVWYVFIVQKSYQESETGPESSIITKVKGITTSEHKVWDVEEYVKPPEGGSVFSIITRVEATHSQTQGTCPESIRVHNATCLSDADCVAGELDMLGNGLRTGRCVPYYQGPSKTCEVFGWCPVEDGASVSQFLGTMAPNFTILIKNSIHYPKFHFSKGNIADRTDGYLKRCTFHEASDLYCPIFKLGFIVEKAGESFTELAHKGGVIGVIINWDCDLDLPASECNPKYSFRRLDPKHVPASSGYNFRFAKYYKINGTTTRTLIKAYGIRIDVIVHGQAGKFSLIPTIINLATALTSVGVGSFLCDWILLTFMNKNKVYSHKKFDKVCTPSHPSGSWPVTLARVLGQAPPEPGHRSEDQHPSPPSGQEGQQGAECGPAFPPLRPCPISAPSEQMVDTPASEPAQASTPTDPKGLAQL
T1 sequence (P56373 1-397): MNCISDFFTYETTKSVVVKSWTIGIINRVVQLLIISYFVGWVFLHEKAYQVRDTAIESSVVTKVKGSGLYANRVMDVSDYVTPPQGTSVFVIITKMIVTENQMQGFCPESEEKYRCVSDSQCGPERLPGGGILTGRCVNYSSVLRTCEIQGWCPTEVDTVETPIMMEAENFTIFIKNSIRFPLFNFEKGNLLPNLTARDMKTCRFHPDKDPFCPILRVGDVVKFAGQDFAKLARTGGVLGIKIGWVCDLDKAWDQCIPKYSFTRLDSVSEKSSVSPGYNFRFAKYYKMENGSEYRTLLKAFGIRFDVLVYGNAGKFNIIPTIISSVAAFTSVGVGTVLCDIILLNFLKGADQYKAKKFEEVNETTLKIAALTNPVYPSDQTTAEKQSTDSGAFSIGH
Text: (§1) The human P2X2/3 chimera clone is created as described by Neelands et al, and then cloned into an expression vector as above. Receptors are expressed in cells (e.g., HEK293 or 1321N1 (obtained from the ECACC)) via transient transfection using standard lipid mediated transfection, or by creation of stable transfectants for each receptor. For expression of the P2X2/3 heteromeric receptor, the P2X3 expression vector is stably transfected into a cell line already stably expressing P2X2. P2X2/3 heteromer function is isolated using pharmacological methods. Cell lines are maintained in DMEM+5% Glutamax, the appropriate level of selective antibiotic, and 10% heat inactivated FBS.
(§2) Functional activity of compounds at the P2X receptor is determined by measuring their ability to inhibit agonist-induced calcium influx. Compounds are tested for antagonist activity against the P2X2/3 chimera, the P2X3 homomer, or the P2X2/3 heteromer. At the start of each screening day, the agonist EC50 is determined. Compound % inhibition or IC50s are subsequently determined using a predetermined agonist concentration (EC50-90 depending on cell line) as a stimulus. The agonists used are αβMeATP, ATP, or other ATP analogs. Compounds may be tested at concentrations ranging from 1 pM to 10 μM.
(§3) To test for antagonist activity, cells expressing the appropriate receptor are seeded onto 96 or 384 well plates 18-24 hours prior to assay. […] Plates are incubated at 37° C. and then equilibrated at room temperature. Antagonism of agonist-induced calcium influx is measured using a fluorescent imaging plate reader (e.g. FLIPR^TETRA, Molecular Devices, Sunnyvale, Calif.). The assay comprises two stages: a pre-treatment phase followed by a treatment phase. Compounds may be tested as follows: For the pre-treatment phase, 50 μL of 3× concentration of test compound in HBSS is added to cells containing […], of dye loading media to achieve a final concentration of 1× test compound. For the treatment phase, at a set interval after pre-treatment (1-30 minutes), 50 μL of 1× test compound plus 4× agonist solution is added, resulting in a final concentration of 1× compound and 1× agonist. […] Responses are measured as (peak fluorescence after agonist addition) minus (baseline fluorescence prior to treatment). Percent inhibition is calculated as follows:
(§4) [formula] IC50 values are determined by analyzing dose response data in a 4 parameter logistic fit using GraphPad Prizm.

hP2X3 = biological target: T2, hP2X3 (Homo sapiens, UniProt P56373); assay: Calcium uptake assay (P2X antagonist assay), P2X3 homomer; format: cell-based
T2 construct: expressed in transfected cells; host or cells: e.g. HEK293 or 1321N1
T2 sequence (P56373 1-397): T1 sequence (P56373 1-397)
Text: as §1, §2, §3, §4

[1] = Ca influx (calcium uptake assay), hP2X2/3H, read-out: IC50 hP2X2/3H
[2] = Ca influx (calcium uptake assay), hP2X3, read-out: IC50 hP2X3
[3] = calcium uptake assay, hP2X2/3H, read-out: IC50 hP2X2/3H (nM), Ca Influx
[4] = calcium uptake assay, hP2X3, read-out: IC50 hP2X3 (nM), Ca Influx

| IC50 (hP2X2/3H; [1]) [nM] | IC50 (hP2X3; [2]) [nM] | IC50 (hP2X2/3H; [3]) [nM] | IC50 (hP2X3; [4]) [nM] | Compound | further results |
| --- | --- | --- | --- | --- | --- |
| 100 to 500 | < 100 | – | – | Cc1ccc(-c2cc(OCC3COCCO3)cc(C(=O)N[C@H](C)c3ccc(C)nc3)c2)nc1 (some centres unmarked) [Compound 332] | – |
| < 100 | 100 to 500 | – | – | Cc1ccc(-c2cc(Oc3ccccn3)cc(C(=O)N[C@H](C)c3cnc(C)nc3)c2)cc1 [Compound 243] | – |
| < 100 | < 100 | – | – | Cc1ccc(-c2cc(CO)cc(C(=O)N[C@H](C)c3ccc(C)nc3)c2)c(C#N)c1 [Compound 290, (R)-2′-Cyano-5-(hydroxymethyl)-4′-methyl-N-(1-(6-methylpyridin-3-yl)ethyl)biphenyl-3-carboxamide] | – |
| – | – | 100 to 500 | < 100 | Cc1ccc(-c2cc(C(=O)NCc3ccc(C)nc3)cc(C(=O)N3CCN(C(C)C)CC3)c2)cc1 [Compound 125] | – |
| – | – | 100 to 500 | 100 to 500 | Cc1ccc(CNC(=O)c2cc(-c3ccc(C)c(F)c3)cc(S(C)(=O)=O)c2)cn1 [Compound 137] | – |
| – | – | > 1000 | > 1000 | Cc1ccc(-c2cc(C#N)cc(C(=O)NCc3cnc(C)nc3)c2)nc1 [Compound 155] | – |
| – | – | 100 to 500 | < 100 | Cc1ccc(-c2cc(C(=O)NCc3ccc(C(F)(F)F)nc3)cc(C(=O)N3CC[C@@H](O)C3)c2)cc1 [Compound 156] | – |
| – | – | 100 to 500 | < 100 | CCN(CC)C(=O)c1cc(C(=O)NCc2cnc(C)nc2)cc(-c2ccc(C)cc2)c1 [Compound 170] | – |
| < 100 | < 100 | – | – | Cc1ccc(-c2cc(OC3COCC3O)cc(C(=O)N[C@H](C)c3ccc(C)nc3)c2)c(C#N)c1 (some centres unmarked) [Compound 337] | – |
| – | – | – | – | Cc1ccc(-c2cc(C(=O)N[C@H](C)c3cnc(C)nc3)cc(C(C)(C)O)c2)cc1 [Compound 398] | IC50 (hP2X2/3H; Ca influx, calcium uptake assay, read-out: IC50 hP2X2/3H): < 100 nM; IC50 (hP2X3; Ca influx, calcium uptake assay, read-out: IC50 hP2X3): < 100 nM |
| – | – | < 100 | < 100 | Cc1ccc(-c2cc(C(=O)NCc3ccc(C)c(S(C)(=O)=O)c3)cc(S(C)(=O)=O)c2)cc1 [Compound 36] | – |
| – | – | < 100 | < 100 | Cc1ccc(-c2cc(C(=O)NCc3cnc(C)nc3)cc(C(=O)N3CCCC3)c2)c(C#N)c1 [Compound 39, 2′-Cyano-4′-methyl-N-((2-methylpyrimidin-5-yl)methyl)-5-(pyrrolidine-1-carbonyl)biphenyl-3-carboxamide] | – |
| – | – | < 100 | < 100 | Cc1ccc(-c2cc(C(=O)N[C@H](C)c3cnc(C)nc3)cc(C(=O)N(C)CC(C)C)c2)cc1 [Compound 14, (R)—N3-Isobutyl-N3,4′-dimethyl-N5-(1-(2-methylpyrimidin-5-yl)ethyl)biphenyl-3,5-dicarboxamide] | – |
| – | – | 100 to 500 | < 100 | COc1ncc(CNC(=O)c2cc(-c3ccc(C)cc3)cc(S(C)(=O)=O)c2)cn1 [Compound 115] | – |
| – | – | < 100 | < 100 | Cc1ccc(-c2cc(C(=O)NCc3ncc(Cl)cc3Cl)cc(C(=O)N3CC(O)C3)c2)cc1 [Compound 134] | – |
| – | – | < 100 | < 100 | Cc1ccc(-c2cc(C(=O)N[C@H](C)c3ccc(C(F)(F)F)nc3)cc(C(=O)N3CCC3)c2)cc1 [Compound 75] | – |
| < 100 | < 100 | – | – | Cc1ccc(-c2cc(OC3CCOC3)cc(C(=O)N[C@H](C)c3ccc(C)nc3)c2)c(C#N)c1 (some centres unmarked) [Compound 314] | – |
| – | – | 100 to 500 | < 100 | Cc1ccc(-c2cc(C(=O)NC(C)c3csc(C)n3)cc(C(=O)N3CCCC3)c2)nc1 (centres unmarked) [Compound 175] | – |
| – | – | 100 to 500 | < 100 | COc1ncc([C@@H](C)NC(=O)c2cc(C(=O)N3CC(O)C3)cc(-c3ccc(C)cc3)c2)cn1 [Compound 84] | – |

| IC50 (hP2X2/3H; [1]) [nM] | IC50 (hP2X3; [2]) [nM] | IC50 (hP2X2/3H; [3]) [nM] | IC50 (hP2X3; [4]) [nM] | Compound | further results |
| --- | --- | --- | --- | --- | --- |
| – | – | 100 to 500 | < 100 | COc1ncc([C@@H](C)NC(=O)c2cc(-c3ccc(C)cc3)cc(S(C)(=O)=O)c2)cn1 [Compound 114] | – |
| < 100 | < 100 | – | – | Cc1ccc(-c2cc(C(=O)N[C@H](C)c3cnc(C)nc3)cc(C(O)c3nccs3)c2)c(C#N)c1 (some centres unmarked) [Compound 293] | – |
| – | – | 100 to 500 | 100 to 500 | Cc1ccc(-c2cc(C(=O)NCc3ccc4cccnc4c3)cc(S(C)(=O)=O)c2)cc1 [Compound 23] | – |
| 100 to 500 | < 100 | – | – | Cc1ccc(-c2cc(CN(C)C)cc(C(=O)N[C@H](C)c3ccc(C)nc3)c2)cc1 [Compound 340, (R)-5-((Dimethylamino)methyl)-4′-methyl-N-(1-(6-methylpyridin-3-yl)ethyl)biphenyl-3-carboxamide] | – |
| 100 to 500 | < 100 | – | – | Cc1ccc(-c2cc(OCCO)cc(C(=O)N[C@H](C)c3ccc(C)nc3)c2)nc1 [Compound 329] | – |
| 501 to 1000 | 100 to 500 | – | – | COCc1cc(C(=O)NCc2cnc(C)nc2)cc(-c2ccc(C)cn2)c1 [Compound 275] | – |
| > 1000 | < 100 | – | – | Cc1ccc(-c2cc(C(=O)NCc3cnc(C)nc3)cc(S(C)(=O)=O)c2)nc1 [Compound 307] | – |
| < 100 | < 100 | – | – | Cc1ccc(-c2cc(Oc3nc(C)cs3)cc(C(=O)N[C@H](C)c3ccc(C)nc3)c2)nc1 [Compound 374] | – |
| 100 to 500 | < 100 | – | – | CCN(CC)CC(O)c1cc(C(=O)N[C@H](C)c2ccc(C)nc2)cc(-c2ccc(C)cc2C#N)c1 (some centres unmarked) [Compound 343] | – |
| < 100 | < 100 | – | – | Cc1ccc(-c2cc(C(=O)NCc3ccc(C)[n+]([O-])c3)cc(S(C)(=O)=O)c2)cc1 [Compound 256, 2-Methyl-5-((4′-methyl-5-(methylsulfonyl)biphenyl-3-ylcarboxamido)methyl)pyridine 1-oxide] | – |
| – | – | < 100 | < 100 | Cc1ccc(-c2cc(C(=O)N[C@H](C)c3ccc(C(F)(F)F)nc3)cc(C(=O)N3CC[C@@H](O)C3)c2)cc1 [Compound 158] | – |
| – | – | < 100 | < 100 | Cc1ccc(-c2cc(C(=O)NCc3ccc(Cl)nc3)cc(C(=O)N3CCCC3)c2)c(C#N)c1 [Compound 69] | – |
| – | – | < 100 | < 100 | Cc1ccc(-c2cc(C(=O)N[C@H](C)c3cnc(C)nc3)cc(C(=O)N3CCCC3)c2)nc1 [Compound 174] | – |
| – | – | < 100 | < 100 | Cc1ccc(-c2cc(C(=O)NCc3ccn4ccnc4c3)cc(C(=O)N3CCCC3)c2)cc1 [Compound 50] | – |
| – | – | 100 to 500 | < 100 | CCCS(=O)(=O)c1cc(C(=O)N[C@@H](C)CN2CCOCC2)cc(-c2ccc(C)cc2)c1 [Compound 70] | – |
| < 100 | < 100 | – | – | Cc1ccc(-c2cc(OC3COCC3O)cc(C(=O)N[C@H](C)c3ccc(C)nc3)c2)cc1 (stereo partly drawn) [Compound 336, 5-(4-Hydroxytetrahydrofuran-3-yloxy)-4′-methyl-N—((R)-1-(6-methylpyridin-3-yl)ethyl)biphenyl-3-carboxamide] | – |
| < 100 | < 100 | – | – | Cc1ccc(-c2cc(Oc3ccccn3)cc(C(=O)N[C@H](C)c3ccc(C)nc3)c2)nc1 [Compound 271] | – |
| – | – | < 100 | 100 to 500 | Cc1ccc(-c2cc(C(=O)NCc3ccc(C)nc3)cc(C(=O)N3CCc4ccccc43)c2)cc1 [Compound 186] | – |
